Source: US6353007B1, “Substituted 1-(4-aminophenyl)indoles and their use as anti-inflammatory agents” (Boehringer Ingelheim Pharmaceuticals, Inc., priority 2000, dated 2002)

System: IL-2 promoter/enhancer
Experiment: IL-2 promoter assay (luciferase reporter, J.1F/C6 Jurkat cells, ionomycin and PMA induction)
Format: cell-based
Conditions: Homo sapiens; J.1F/C6 Jurkat cell line; induction with ionomycin and PMA; read-out: IC50, inhibition of luciferase activity
From the text: The IL-2 promoter assay measures transcriptional activation of a luciferase reporter gene which has been placed under control of the IL-2 promoter/enhancer. All the known regulatory features of the IL-2 gene are contained within a ˜300 bp sequence immediately upstream of the open reading frame. The region −328 to +35 relative to the transcription start site of the IL-2 gene is obtained by […] of human genomic DNA and is subcloned into the promoterless luciferase reporter vector pGL2-Basic (Promega). The resulting construct, pIL2P-luc, and a vector containing a neomycin resistance gene, pcDNA/Neo (Invitrogen), are linearized and stably transfected into Jurkat cells (a human T cell line) by electroporation.
For screening compounds, the cells are pelleted by centrifugation, washed once with PBS, resuspended in RPMI (phenol red-free) containing 5% FBS, and dispensed into 96-well, white microtiter plates (Packard) at 50,000 cells/well. The cells are pre-incubated with compounds (1 μg/ml) for 15 min prior to addition of ionomycin (1 μg/ml) and PMA (10 ng/ml) in a final volume of 100 μl. Following a 5 hr incubation at 37° C. in a humidified incubator, 100 μl of Luc-Lite lysis buffer/luciferase assay buffer (Promega) is added and luminescence measured using a Packard TopCount scintillation counter/luminometer.

IC50: 0.3 nM
SMILES: C=CC[C@@H]1/C=C(\C)C[C@H](C)C[C@H](OC)[C@H]2O[C@@](O)(C(=O)C(=O)N3CCCC[C@H]3C(=O)O[C@H](/C(C)=C/[C@@H]3CC[C@@H](O)[C@H](OC)C3)[C@H](C)[C@@H](O)CC1=O)[C@H](C)C[C@@H]2OC [FK506]
